# Tested on: MDA-MB-231
# Test: Inhibition of MDA-MB-231 viability/growth at 1 μM, 72 h
# Assay type: cell-based
# Details: 1 μM compound, 72 h incubation
row,Compound,"Inhibition of MDA-MB-231, result in words"
1,"Nc1n[nH]c2ccc([C@@H]3Nc4ccc5[nH]nnc5c4[C@H]4C5CC[C@@H](C5)[C@@H]34)cc12 (stereo in doubt) [Compound 18, 5-(6,7,7a,8,9,10,11,11a-Octahydro-3H-8,11-methano[1,2,3]triazolo[4,5-a]phenanthridin-7-yl)-1H-indazol-3-amine]",loss in potency
2,"Nc1n[nH]c2ccc([C@@H]3Nc4ccc5[nH]cnc5c4[C@H]4C5CC[C@@H](C5)[C@@H]34)cc12 (stereo in doubt) [Compound 19, 5-(6,7,7a,8,9,10,11,11a-Octahydro-3H-8,11-methanoimidazo[4,5-a]phenanthridin-7-yl)-1H-indazol-3-amine]",loss in potency
3,"Cc1n[nH]c2ccc3c(c12)[C@H]1C2CC[C@@H](C2)[C@H]1[C@H](c1ccc2[nH]nc(N)c2c1)N3 (stereo in doubt) [Compound 20, 5-(1-Methyl-6,7,7a,8,9,10,11,11a-octahydro-3H-8,11-methanopyrazolo[4,3-a]phenanthridin-7-yl)-1H-indazol-3-amine]",loss of potency
4,"Nc1n[nH]c2cc([C@@H]3Nc4c(Cl)cc5[nH]ncc5c4[C@H]4[C@@H]5CC[C@@H](C5)[C@H]43)ccc12 (stereo in doubt) [Compound 24, 6-(5-Chloro-6,7,7a,8,9,10,11,11a-octahydro-3H-8,11-methanopyrazolo[4,3-a]phenanthridin-7-yl)-1H-indazol-3-amine]",inactive
5,"Nc1n[nH]c2ccc([C@@H]3Nc4ccc5[nH]ncc5c4[C@H]4OCCO[C@H]43)cc12 (stereo in doubt) [Compound 33, 5-(2,3,4a,6,9,11c-Hexahydro-5H-[1,4]dioxino[2,3-c]pyrazolo[4,3-f]quinolin-5-yl)-1H-indazol-3-amine]",no activity
6,"Nc1n[nH]c2cc([C@@H]3Nc4c(Br)cc5[nH]ncc5c4[C@H]4[C@@H]5CC[C@@H](C5)[C@H]43)ccc12 (stereo in doubt) [Compound 25, 6-(5-Bromo-6,7,7a,8,9,10,11,11a-octahydro-3H-8,11-methanopyrazolo[4,3-a]phenanthridin-7-yl)-1H-indazol-3-amine]",inactive
7,"Nc1n[nH]c2ccc([C@@H]3Nc4ccc5[nH]nc(F)c5c4[C@H]4C5CC[C@@H](C5)[C@@H]34)cc12 (stereo in doubt) [Compound 21, 5-(1-Fluoro-6,7,7a,8,9,10,11,11a-octahydro-3H-8,11-methanopyrazolo[4,3-a]phenanthridin-7-yl)-1H-indazol-3-amine]",loss of potency

# Same assay, conditions: Homo sapiens, MDA-MB-231; 1 μM compound, 72 h incubation
row,Compound,inhibition at 1 µM [%]
1,"c1n[nH]cc1[C@@H]1Nc2ccc3[nH]ncc3c2[C@H]2[C@@H]3CC[C@@H](C3)[C@H]21 (stereo in doubt) [Compound 2, 7-(1H-Pyrazol-4-yl)-6,7,7a,8,9,10,11,11a-octahydro-3H-8,11-methanopyrazolo[4,3-a]phenanthridine]",12
2,"Oc1ccc([C@@H]2Nc3ccc4[nH]ncc4c3[C@H]3C4CC[C@@H](C4)[C@@H]23)cc1 (stereo in doubt) [Compound 11, 4-(−6,7,7a,8,9,10,11,11a-Octahydro-3H-8,11-methanopyrazolo[4,3-a]phenanthridin-7-yl)phenol]",0
3,"Nc1n[nH]c2cc([C@@H]3Nc4ccc5[nH]ncc5c4[C@H]4[C@@H]5CC[C@@H](C5)[C@H]43)ccc12 (stereo in doubt) [Compound 30, 6-(6,7,7a,8,9,10,11,11a-Octahydro-3H-8, 11-methanopyrazolo[4,3-a]phenanthridin-7-yl)-1H-indazol-3-amine]",29
4,"FC(F)(F)c1n[nH]cc1[C@@H]1Nc2ccc3[nH]ncc3c2[C@H]2[C@@H]3CC[C@@H](C3)[C@H]21 (stereo in doubt) [Compound 1, 7-(3-(Trifluoromethyl)-1H-pyrazol-4-yl)-6,7,7a,8,9,10,11,11a-octahydro 3H-8,11-methanopyrazolo[4,3-a]phenanthridine]",5
5,"Nc1n[nH]c2ccc(-c3nc4ccc5[nH]ncc5c4c4c3[C@H]3CC[C@@H]4C3)cc12 (stereo in doubt) [Compound 32, 5-(8,9,10,11-tetrahydro-3H-8,11-Methanopyrazolo[4,3-a]phenanthridin-7-yl)-1H-indazol-3-amine]",19
6,"c1csc([C@@H]2Nc3ccc4[nH]ncc4c3[C@H]3[C@@H]4CC[C@@H](C4)[C@H]32)n1 (stereo in doubt) [Compound 3, 2-(6,7,7a,8,9,10,11,11a-Octahydro-3H-8,11-methanopyrazolo[4,3-a]phenanthridin-7-yl)thiazole]",13
7,"c1cc2[nH]ncc2cc1[C@@H]1Nc2ccc3[nH]ncc3c2[C@H]2C3CC[C@@H](C3)[C@@H]12 (stereo in doubt) [Compound 16, 7-(1H-Indazol-5-yl)-6,7,7a,8,9,10,11,11a-octahydro-3H-8,11-methanopyrazolo[4,3-a]phenanthridine]",78
8,"Cn1cc([C@@H]2Nc3ccc4[nH]ncc4c3[C@H]3C4CC[C@@H](C4)[C@@H]23)c(C2CC2)n1 (stereo in doubt) [Compound 13, 7-(3-Cyclopropyl-1-methyl-1H-pyrazol-4-yl)-6,7,7a,8,9,10,11,11a-octahydro-3H-8,11-methanopyrazolo[4,3-a]phenanthridine]",0
9,"O=C(Nc1n[nH]c2ccc([C@@H]3Nc4ccc5[nH]ncc5c4[C@H]4[C@@H]5CC[C@@H](C5)[C@H]43)cc12)C1CC1 (stereo in doubt) [Compound 28, N-(5-(6,7,7a,8,9,10,11,11a-octahydro-3H-8,11-Methanopyrazolo[4,3-a]phenanthridin-7-yl)-1H-indazol-3-yl)cyclopropanecarboxamide]",31
10,"N#Cc1cc([C@@H]2Nc3ccc4[nH]ncc4c3[C@H]3[C@@H]4CC[C@@H](C4)[C@H]32)ccc1F (stereo in doubt) [Compound 10, 2-Fluoro-5-(−6,7,7a,8,9,10,11,11a-octahydro-3H-8,11-methanopyrazolo[4,3-a]phenanthridin-7-yl)benzonitrile]",3
11,"NC(=O)c1ccc([C@@H]2Nc3ccc4[nH]ncc4c3[C@H]3C4CC[C@@H](C4)[C@@H]23)cc1 (stereo in doubt) [Compound 12, 4-(6,7,7a,8,9,10,11,11a-Octahydro-3H-8,11-methanopyrazolo[4,3-a]phenanthridin-7-yl)benzamide]",17
12,"Oc1ccc([C@@H]2Nc3ccc4[nH]ncc4c3[C@H]3C4CC[C@@H](C4)[C@@H]23)c(F)c1 (stereo in doubt) [Compound 14, 3-Fluoro-4-(6,7,7a,8,9,10,11,11a-octahydro-3H-8,11-methanopyrazolo[4,3-a]phenanthridin-7-yl)phenol]",11
13,"Nc1ccc([C@@H]2Nc3ccc4[nH]ncc4c3[C@H]3[C@@H]4CC[C@@H](C4)[C@H]32)cn1 (stereo in doubt) [Compound 9, 5-(6,7,7a,8,9,10,11,11a-Octahydro-3H-8,11-methanopyrazolo[4,3-a]phenanthridin-7-yl)pyridin-2-amine]",18
14,"c1csc([C@@H]2Nc3ccc4[nH]ncc4c3[C@H]3[C@@H]4CC[C@@H](C4)[C@H]32)c1 (stereo in doubt) [Compound 8, 7-(Thiophen-2-yl)-6,7,7a,8,9,10,11,11a-octahydro-3H-8,11-methanopyrazolo[4,3-a]phenanthridine]",13
15,"c1nc([C@@H]2Nc3ccc4[nH]ncc4c3[C@H]3[C@@H]4CC[C@@H](C4)[C@H]32)c[nH]1 (stereo in doubt) [Compound 4, 7-(1H-Imidazol-4-yl)-6,7,7a,8,9,10,11,11a-octahydro-3H-8,11-methanopyrazolo[4,3-a]phenanthridine]",14
16,"Nc1nc2ccc([C@@H]3Nc4ccc5[nH]ncc5c4[C@H]4[C@@H]5CC[C@@H](C5)[C@H]43)cc2s1 [Compound 29, 6-(6,7,7a,8,9,10,11,11a-Octahydro-3H-8,11-methanopyrazolo[4,3-a]phenanthridin-7-yl)benzo[d]thiazol-2-amine]",41
17,"Nc1n[nH]c2ccc([C@@H]3Nc4ccc5cn[nH]c5c4[C@H]4[C@@H]5CC[C@@H](C5)[C@H]43)cc12 (stereo in doubt) [Compound 31, 5-(6,7,7a,8,9,10,11,11a-Octahydro-1H-8,11-methanopyrazolo[3,4-a]phenanthridin-7-yl)-1H-indazol-3-amine]",94
18,"COc1cnccc1[C@@H]1Nc2ccc3[nH]ncc3c2[C@H]2C3CC[C@@H](C3)[C@@H]12 (stereo in doubt) [Compound 15, 7-(3-Methoxypyridin-4-yl)-6,7,7a,8,9,10,11,11a-octahydro-3H-8,11-methanopyrazolo[4,3-a]phenanthridine]",12
19,"c1cc2cn[nH]c2cc1[C@@H]1Nc2ccc3[nH]ncc3c2[C@H]2C3CC[C@@H](C3)[C@@H]12 (stereo in doubt) [Compound 17, 7-(1H-Indazol-6-yl)-6,7,7a,8,9,10,11,11a-octahydro-3H-8,11-methanopyrazolo[4,3-a]phenanthridine]",91
20,"FC(F)(F)c1ccc([C@@H]2Nc3ccc4[nH]ncc4c3[C@H]3[C@@H]4CC[C@@H](C4)[C@H]32)cc1 (stereo in doubt) [Compound 6, 7-(4-(Trifluoromethyl)phenyl)-6,7,7a,8,9,10,11,11a-octahydro-3H-8,11-methanopyrazolo[4,3-a]phenanthridine]",21
21,"Fc1cnccc1[C@@H]1Nc2ccc3[nH]ncc3c2[C@H]2[C@@H]3CC[C@@H](C3)[C@H]21 (stereo in doubt) [Compound 7, 7-(3-Fluoropyridin-4-yl)-6,7,7a,8,9,10,11,11a-octahydro-3H-8,11-methanopyrazolo[4,3-a]phenanthridine]",11
